Values joined by “and” are separate entries in the source; they are usually repeats but may differ in a detail not shown here. Equal entries are not always repeated. Square brackets hold non-standard residues; d marks the D form. Peptide text beside a SMILES is read from it. Ava = NCCCCC(=O)O
Key:
Assay type in all cases: cell-based
HIV-1 NL 4-3 [1] = assay: HIV-1 infection of C8166 cells (syncytia formation, p24 ELISA) with HIV-1 NL 4-3; settings: for Day 7 syncitia formed / P 24: Table 6; for P 24: Day 7
Summary of the method: (§1)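 C8166 T-cells were preincubated with peptide for 1 h at 37 °C, then exposed for 1 h to HIV-1 at 1000 TCID50/ml, washed, and cultured with peptide kept present throughout, with medium replaced at day 4. Infection was scored by syncytia formation and by supernatant p24 ELISA, with at least two runs in duplicate.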

HIV-1 NDK = assay: HIV-1 infection of C8166 cells (syncytia formation, p24 ELISA) with HIV-1 NDK; set-up: key to syncitia formed, Day 4 / syncitia formed, Day 5 / syncitia formed, Day 6 / syncitia formed, Day 7: ++, +, (+), (+)− and − represent decreasing numbers of syncitia formed; ++, +, (+), (+)− and − represent decreasing numbers of syncitia formed; ++, +, (+), (+)− and − represent decreasing numbers of syncitia formed; ++, +, (+), (+)− and − represent decreasing numbers of syncitia formed; ++, +, (+), (+)− and − represent decreasing numbers of syncitia formed; settings: for P 24: P 24 after Day 7
Summary of the method: as §1

HIV-1 NL 4-3 [2] = assay: HIV-1 infection of C8166 cells (syncytia formation, p24 ELISA) with HIV-1 NL 4-3; set-up: key: ++, +, (+), (+)− and − represent decreasing numbers of syncitia formed; ++, +, (+), (+)− and − represent decreasing numbers of syncitia formed; ++, +, (+), (+)− and − represent decreasing numbers of syncitia formed; ++, +, (+), (+)− and − represent decreasing numbers of syncitia formed; ++, +, (+), (+)− and − represent decreasing numbers of syncitia formed; settings: Table 6
Summary of the method: as §1

[3] = C8166 cells, HIV-1 subtype B NL 4-3, Table 9, two lines = tested twice, 8 days apart

C[C@H](NC(=O)[C@H](CCCNC(=N)N)NC(=O)CNC(=O)[C@@H]1CCCN1C(=O)CN)C(=O)N[C@@H](Cc1ccccc1)C(=O)NCCCCC(=O)O [SPC3 monomer valeric acid, GPGRAF-NHCH2CH2CH2CH2COOH] (H-GPGRAF[Ava]-OH; N-terminus assumed)
−: syncitia formed, Day 4 (HIV-1 NDK; 0.005 μM) | syncitia formed, Day 4 (HIV-1 NDK; 0.01 μM) | syncitia formed, Day 4 (HIV-1 NDK; 0.05 μM) | syncitia formed, Day 4 (HIV-1 NDK; 0.1 μM) | syncitia formed, Day 4 (HIV-1 NDK; 0.5 μM) | syncitia formed, Day 5 (HIV-1 NDK; 0.5 μM) | syncitia formed, Day 4 (HIV-1 NDK; 1 μM) | syncitia formed, Day 5 (HIV-1 NDK; 1 μM) | syncitia formed, Day 6 (HIV-1 NDK; 1 μM) | syncitia formed, Day 4 (HIV-1 NDK; 5 μM) | syncitia formed, Day 5 (HIV-1 NDK; 5 μM) | syncitia formed, Day 6 (HIV-1 NDK; 5 μM) | syncitia formed, Day 7 (HIV-1 NDK; 5 μM) | Day 4 syncitia formed (HIV-1 NL 4-3 [2]; 0.005 μM) | Day 4 syncitia formed (HIV-1 NL 4-3 [2]; 0.01 μM) | Day 4 syncitia formed (HIV-1 NL 4-3 [2]; 0.05 μM) | Day 4 syncitia formed (HIV-1 NL 4-3 [2]; 0.1 μM) | Day 4 syncitia formed (HIV-1 NL 4-3 [2]; 0.5 μM) | Day 5 syncitia formed (HIV-1 NL 4-3 [2]; 0.5 μM) | Day 4 syncitia formed (HIV-1 NL 4-3 [2]; 1 μM) | Day 5 syncitia formed (HIV-1 NL 4-3 [2]; 1 μM) | Day 6 syncitia formed (HIV-1 NL 4-3 [2]; 1 μM) | Day 4 syncitia formed (HIV-1 NL 4-3 [2]; 5 μM) | Day 5 syncitia formed (HIV-1 NL 4-3 [2]; 5 μM) | Day 6 syncitia formed (HIV-1 NL 4-3 [2]; 5 μM) | Day 7 syncitia formed (HIV-1 NL 4-3 [2]; 5 μM)
11810 pg/mL and 15307 pg/mL: P 24 (HIV-1 NDK; 0.1 μM)
+: syncitia formed, Day 5 (HIV-1 NDK; 0.005 μM) | syncitia formed, Day 5 (HIV-1 NDK; 0.01 μM) | syncitia formed, Day 5 (HIV-1 NDK; 0.05 μM) | syncitia formed, Day 5 (HIV-1 NDK; 0.1 μM) | syncitia formed, Day 6 (HIV-1 NDK; 0.5 μM) | Day 5 syncitia formed (HIV-1 NL 4-3 [2]; 0.005 μM) | Day 5 syncitia formed (HIV-1 NL 4-3 [2]; 0.01 μM) | Day 5 syncitia formed (HIV-1 NL 4-3 [2]; 0.05 μM) | Day 7 syncitia formed (HIV-1 NL 4-3 [2]; 0.5 μM)
11840 pg/mL and 12240 pg/mL: P 24 (HIV-1 NDK; 0.5 μM)
23810 pg/mL and 21810 pg/mL: P 24 (HIV-1 NDK; 0.05 μM)
+ and ++: Day 6 syncitia formed (HIV-1 NL 4-3 [2]; 0.1 μM)
++/T: Day 7 syncitia formed (HIV-1 NL 4-3 [1]; 0.005 μM) | Day 7 syncitia formed (HIV-1 NL 4-3 [1]; 0.01 μM) | syncitia formed, Day 7 (HIV-1 NDK; 0.005 μM) | syncitia formed, Day 7 (HIV-1 NDK; 0.01 μM)
++: syncitia formed, Day 6 (HIV-1 NDK; 0.005 μM) | syncitia formed, Day 6 (HIV-1 NDK; 0.01 μM) | syncitia formed, Day 6 (HIV-1 NDK; 0.05 μM) | syncitia formed, Day 7 (HIV-1 NDK; 0.05 μM) | syncitia formed, Day 6 (HIV-1 NDK; 0.1 μM) | syncitia formed, Day 7 (HIV-1 NDK; 0.1 μM) | syncitia formed, Day 7 (HIV-1 NDK; 0.5 μM) | Day 6 syncitia formed (HIV-1 NL 4-3 [2]; 0.005 μM) | Day 6 syncitia formed (HIV-1 NL 4-3 [2]; 0.01 μM) | Day 6 syncitia formed (HIV-1 NL 4-3 [2]; 0.05 μM) | Day 7 syncitia formed (HIV-1 NL 4-3 [2]; 0.05 μM) | Day 7 syncitia formed (HIV-1 NL 4-3 [2]; 0.1 μM)
21810 pg/mL: P 24 (HIV-1 NL 4-3 [1]; 0.01 μM) | P 24 (HIV-1 NDK; 0.01 μM)
325 pg/mL and 445 pg/mL: P 24 (HIV-1 NL 4-3 [1]; 1 μM)
20 nM: IC50 (HIV-1 NL 4-3 [1]; C8166 cells, HIV-1 subtype B NL 4-3, Table 3)
50 nM: IC50 (HIV-1 NL 4-3 [1]; [3])
3 pg/mL: P 24 (HIV-1 NL 4-3 [1]; 5 μM)
23810 pg/mL: P 24 (HIV-1 NL 4-3 [1]; 0.005 μM) | P 24 (HIV-1 NDK; 0.005 μM)
(+): syncitia formed, Day 7 (HIV-1 NDK; 1 μM) | Day 5 syncitia formed (HIV-1 NL 4-3 [2]; 0.1 μM) | Day 6 syncitia formed (HIV-1 NL 4-3 [2]; 0.5 μM) | Day 7 syncitia formed (HIV-1 NL 4-3 [2]; 1 μM)
1840 pg/mL and 2830 pg/mL: P 24 (HIV-1 NL 4-3 [1]; 0.5 μM)
200 nM: IC50 (HIV-1 NDK; HIV 1 NDK, Table 10)
5 µM: IC100 (HIV-1 NL 4-3 [1]; [3]) | IC100 (HIV-1 NDK; HIV 1 NDK, Table 10)
